SMILES strings stand for the structures.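 Dose response: 5 concentrations. Exposure: 48 h. Format: 96-well plates. Endpoint: linear interpolation; highest concentration if not reached. The concentration for 50% growth inhibition is given as GI50. TGI: total growth inhibition.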

Test systems include A498 renal; A549 NSCLC; COLO 205 colon; DU-145 prostate; HCT-15 colon; HOP-92 NSCLC; NCI/ADR-RES ovarian; SF-539 CNS; SK-MEL-5 melanoma; SN12C renal.
Common to all, as to test: NCI-60 cell line screen, 48 h

Turning to `O=C1C2=C(C(=O)c3cnccc31)C1C=CC2CC1` (stereo not given), the GI50 was 16.1 µM with A498 renal; 3.67 µM with A549 NSCLC; 2.32 µM in the experiment with COLO 205 colon; 1.8 µM in the experiment on DU-145 prostate; 2.28 µM with HCT-15 colon; 2.62 µM with HOP-92 NSCLC. Moreover, the GI50 in the experiment on NCI/ADR-RES ovarian is 1.51 µM; in the experiment on SF-539 CNS, 2.27 µM; in the experiment on SK-MEL-5 melanoma it was 1.84 µM; in the experiment with SN12C renal it was 1.69 µM. Moreover, the TGI with A498 renal is 29.7 µM; in the experiment on A549 NSCLC, 8.73 µM; in the experiment on COLO 205 colon, 4.62 µM; in the experiment on DU-145 prostate, 3.24 µM; in the experiment on HCT-15 colon, 4.94 µM; in the experiment with HOP-92 NSCLC it was 8.8 µM. The TGI with NCI/ADR-RES ovarian came out at 3.5 µM; in the experiment with SF-539 CNS, 4.5 µM; in the experiment with SK-MEL-5 melanoma it was 3.85 µM; with SN12C renal it was 3.1 µM.
For `CC1CN(S(=O)(=O)c2oc(-c3ccc(Cl)cc3)nc2C#N)CC(C)O1` (stereo not given), the GI50 is 14.4 µM with A498 renal; 15.5 µM in the experiment on A549 NSCLC; 2.04 µM in the experiment with COLO 205 colon; 1.92 µM in the experiment with DU-145 prostate; 1.41 µM in the experiment with HCT-15 colon; 1.78 µM in the experiment with HOP-92 NSCLC. Moreover, the GI50 is 10.7 µM in the experiment on NCI/ADR-RES ovarian, 1.78 µM with SF-539 CNS, 2.27 µM with SK-MEL-5 melanoma and 1.7 µM with SN12C renal. Further, the TGI with A498 renal came to 27.5 µM; in the experiment with A549 NSCLC, 32.9 µM; in the experiment on COLO 205 colon it was 4.35 µM; in the experiment on DU-145 prostate, 4.1 µM; in the experiment with HCT-15 colon, 3.04 µM; in the experiment on HOP-92 NSCLC, 3.45 µM. Moreover, the TGI worked out at 65.5 µM in the experiment on NCI/ADR-RES ovarian, 3.28 µM in the experiment with SF-539 CNS, 5.16 µM in the experiment on SK-MEL-5 melanoma and 3.23 µM with SN12C renal.
For `Cc1cc(Cl)ccc1OCC(=O)Nc1nc(N)nc(N)n1`, the TGI in the experiment with A498 renal, with A549 NSCLC, in the experiment on COLO 205 colon, with DU-145 prostate, in the experiment with HCT-15 colon and with HOP-92 NSCLC was above 100 µM throughout. Also, the TGI with NCI/ADR-RES ovarian, with SF-539 CNS, with SK-MEL-5 melanoma and with SN12C renal was above 100 µM throughout.
Consider `CC[C@@]1(OC(=O)CN)C(=O)OCc2c1cc1n(c2=O)Cc2c-1nc1cc3c(cc1c2CCl)OCO3`, for which the GI50 with A498 renal was 0.0661 µM; with A549 NSCLC it was 0.0201 µM; in the experiment with COLO 205 colon, 0.761 µM; in the experiment on DU-145 prostate, below 0.01 µM; in the experiment on HCT-15 colon, 0.372 µM; in the experiment on HOP-92 NSCLC, 0.0724 µM. For the same molecule, the GI50 in the experiment with NCI/ADR-RES ovarian is below 0.01 µM; with SF-539 CNS, below 0.01 µM; in the experiment on SK-MEL-5 melanoma, below 0.0118 µM; in the experiment on SN12C renal, below 0.0117 µM. In addition, the TGI with A498 renal was 1.24 µM; with A549 NSCLC, above 100 µM; in the experiment with COLO 205 colon, 3.1 µM; in the experiment on DU-145 prostate, above 33.6 µM; in the experiment with HCT-15 colon it was 10.2 µM; in the experiment on HOP-92 NSCLC, 7.13 µM. Also, the TGI in the experiment with NCI/ADR-RES ovarian was 0.0583 µM; in the experiment on SF-539 CNS, below 0.0318 µM; in the experiment with SK-MEL-5 melanoma it was 0.5 µM; in the experiment on SN12C renal, 3.76 µM.
Regarding `CCCCCCCCOC(=O)c1c(C)[nH]c(/C=C2\N=C(c3ccc[nH]3)C=C2OC)c1C`, the GI50 is 0.19 µM in the experiment with A498 renal; 0.118 µM in the experiment with A549 NSCLC; 0.0846 µM in the experiment on COLO 205 colon; 0.0427 µM in the experiment with DU-145 prostate; below 0.0163 µM in the experiment on HCT-15 colon; 0.0456 µM with HOP-92 NSCLC. The GI50 in the experiment with NCI/ADR-RES ovarian was 0.0367 µM; with SF-539 CNS, 0.0529 µM; with SK-MEL-5 melanoma it was 0.0169 µM; with SN12C renal it was 0.0601 µM. Also, the TGI is 2 µM in the experiment on A498 renal; 13.3 µM in the experiment with A549 NSCLC; 2.62 µM in the experiment with COLO 205 colon; 9.87 µM in the experiment on DU-145 prostate; 3.15 µM with HCT-15 colon; 0.228 µM in the experiment with HOP-92 NSCLC. The TGI with NCI/ADR-RES ovarian worked out at 9.86 µM; in the experiment with SF-539 CNS, 2.62 µM; with SK-MEL-5 melanoma it was 0.0819 µM; in the experiment on SN12C renal it was 3.55 µM.
On to `COc1cccc(CN(C)c2ccc(CO)c(Cl)c2)c1`, for which the GI50 in the experiment on A498 renal is 0.0311 µM; with A549 NSCLC, 4.09 µM; in the experiment on COLO 205 colon it was 3.18 µM; with DU-145 prostate, 37.1 µM; in the experiment on HCT-15 colon, 24 µM; in the experiment with HOP-92 NSCLC it was 6.97 µM. The GI50 in the experiment with NCI/ADR-RES ovarian was 19.1 µM; in the experiment on SF-539 CNS it was 48 µM; with SK-MEL-5 melanoma it was 7.5 µM; in the experiment with SN12C renal, 24.7 µM. For the same molecule, the TGI is 0.154 µM in the experiment on A498 renal; 40.1 µM with A549 NSCLC; 11.7 µM with COLO 205 colon; above 100 µM in the experiment with DU-145 prostate; above 100 µM in the experiment with HCT-15 colon; 56.9 µM with HOP-92 NSCLC. Further, the TGI in the experiment with NCI/ADR-RES ovarian is 67 µM; with SF-539 CNS, above 100 µM; with SK-MEL-5 melanoma it was 21.4 µM; with SN12C renal, above 100 µM.
For the molecule `c1cc(-c2nnc(SSc3ncnc4nc[nH]c34)o2)ccn1`, the GI50 in the experiment with A498 renal was 4.61 µM; in the experiment with A549 NSCLC it was 23 µM; in the experiment on COLO 205 colon, 3.3 µM; in the experiment with DU-145 prostate, 0.455 µM; in the experiment with HCT-15 colon, 2.8 µM; in the experiment with HOP-92 NSCLC, 0.582 µM. Moreover, the GI50 is 2.74 µM with NCI/ADR-RES ovarian, 1.84 µM with SF-539 CNS, 3.46 µM in the experiment on SK-MEL-5 melanoma and 6.6 µM in the experiment with SN12C renal. For the same molecule, the TGI in the experiment on A498 renal was above 100 µM; in the experiment with A549 NSCLC, above 100 µM; in the experiment on COLO 205 colon, 23.8 µM; in the experiment with DU-145 prostate, above 100 µM; in the experiment with HCT-15 colon, above 100 µM; with HOP-92 NSCLC it was above 100 µM. Further, the TGI in the experiment with NCI/ADR-RES ovarian, in the experiment on SF-539 CNS, with SK-MEL-5 melanoma and with SN12C renal was above 100 µM throughout.
For `NS(=O)(=O)c1ccc(N=Nc2c(O)[nH]c3ccc(C(=O)NCc4ccncc4)cc23)cc1`, the GI50 in the experiment with A498 renal, in the experiment with A549 NSCLC, in the experiment on COLO 205 colon, with DU-145 prostate, in the experiment on HCT-15 colon and in the experiment with HOP-92 NSCLC was above 25 µM each time. The GI50 in the experiment with NCI/ADR-RES ovarian, with SF-539 CNS, in the experiment on SK-MEL-5 melanoma and with SN12C renal was above 25 µM each time. The TGI with A498 renal, with A549 NSCLC, in the experiment with COLO 205 colon, in the experiment on DU-145 prostate, with HCT-15 colon and with HOP-92 NSCLC was above 25 µM each time. The TGI in the experiment with NCI/ADR-RES ovarian, in the experiment on SF-539 CNS, in the experiment with SK-MEL-5 melanoma and in the experiment with SN12C renal was above 25 µM throughout.

The record behind these values is PubChem BioAssay (NCI).
